{
  "source": "paper PMC5391125",
  "about": "“Fatty acid DSF binds and allosterically activates histidine kinase RpfC of phytopathogenic bacterium Xanthomonas campestris pv. campestris to regulate quorum-sensing and virulence” (PLoS Pathogens, 2017)",
  "key": {"GST": {"target": "GST (Schistosoma japonicum, UniProt P08515)", "experiment": "Circular dichroism of GST", "conditions": "GST 6 μM"}, "RpfC^FL liposome [1]": {"target": "T1, RpfC^FL liposome (Xanthomonas campestris pv. campestris, UniProt P0C0F7)", "T1 construct": "His6 (C); made in house; host or cells: E. coli BL21(DE3), pET30a", "experiment": "Limited proteolysis of RpfC^FL liposome", "conditions": "with AMP-PNP, vs DSF minus control", "procedure": "The limited proteolysis experiments were performed at 0°C with 1.4 μg RpfC liposomes in a reaction buffer containing 50 mM Tris-HCl, pH 8.0, 100 mM NaCl, 2 mM DTT and 1.13 mM AMP-PNP. Trypsin was added to a final concentration of 0.018 μg μl^-1 to degrade RpfC liposome. Aliquot was removed at indicated time and the reaction was stopped by 5 × SDS loading buffer (250 mM Tris-HCl pH 6.8, 10% (w/v) SDS, 0.5% (w/v) bromophenol blue, 50% (v/v) glycerol, 25 mM PMSF). Samples were separated by 12% SDS-PAGE gel and protein bands were detected by silver staining. The sequence of the different peptide fragments were determined by a nanoLC-MS/MS with Orbitrap Fusion system (Thermo scientific, USA)."}, "RpfC^FL liposome [2]": {"target": "T1, RpfC^FL liposome", "experiment": "Microscale thermophoresis (MST) binding, RpfC^FL liposome", "conditions": "RpfC liposome 0.1 μM, read-out: dissociation constant (Kd)", "procedure": "(§1) Binding reactions of RpfC to DSF was measured by microscale thermophoresis in a Monolith NT.Label Free (Nano Temper Technologies GMBH, Germany) instrument which detects changes in size, charge and conformation induced by binding. RpfC liposomes were collected with centrifugation of 200,000 g for 40 min and resuspended in MST buffer (50 mM Tris-HCl pH 7.8, 150 mM NaCl, 10 mM MgCl2, 0.05% Tween-20) to an approximate concentration of 0.1 μM. A range of concentration of DSF (range from 0.06 μM to 2 mM) in assay buffer (50 mM Tris-HCl pH 7.8, 150 mM NaCl, 10 mM MgCl2, 0.05% Tween-20, 5% methanol) was incubated with RpfC liposomes (1:1, v/v) for 10 minutes. The sample was loaded into the NT.Label Free standard capillaries and measured with 20% LED power and 40% MST power. Purified sensor protein was dissolved in reaction buffer (50 mM Tris-HCl pH 8.5, 150 mM NaCl, 0.1% Tween-20) to a final concentration as 8 μM. Dilute DSF from 0.0122 μM to 25 μM in buffer (50 mM Tris-HCl pH 8.5, 150 mM NaCl, 0.25‰ methanol). Different concentrations of DSF and sensor protein (1:1, v/v) were mixed and loaded into NT.Label Free standard capillaries. The label free MST assay was performed with 20% LED power and 40% MST power. KD Fit function of the Nano Temper Analysis Software Version 1.5.41 was used to fit curve and calculate the value of dissociation constant (Kd)."}, "RpfC^Q22A liposome": {"target": "T2, RpfC^Q22A liposome (Xanthomonas campestris pv. campestris, UniProt P0C0F7, Q22A)", "T2 construct": "His6 (C); made in house; host or cells: E. coli BL21(DE3), pET30a", "experiment": "MST binding, RpfC^Q22A liposome", "procedure": "as §1, with “The label free MST assay was performed with 20% LED power and 40% MST power. KD Fit function of the Nano Temper Analysis Software Version 1.5.41 was used to fit curve and calculate the value of dissociation constant (Kd).” left out\n(§2) Supplementary file ppat.1006304.s004.pdf: S4 Fig Substitution of essential amino acid impact DSF-RpfC interaction. Microscale thermophoresis (MST) was used to quantify the binding affinity between DSF and RpfC derivates. […]"}, "RpfC^FL liposome [3]": {"target": "T1, RpfC^FL liposome", "experiment": "Thermal shift assay (differential scanning fluorimetry), RpfC^FL liposome", "type": "binding", "procedure": "(§3) DSF was mixed with purified proteins or liposomes of RpfC to a final concentration of 0 μM, 5 μM or 10 μM respectively in the reaction buffer (50 mM Tris-HCl pH 7.8, 25 mM NaCl, 100 mM KCl). The protein concentration was 0.5–1 μg/μl. The TSA was performed by a Prometheus NT.48 nanoDSF device with a temperature gradient of 20–95°C, 1°C /min. Unfolding transition points were determined according to the changes of intrinsic tryptophan fluorescence at 330 nm, 350 nm. The ratio of fluorescence and the melting temperature (Tm) were calculated by the NT Melting Control software (NanoTemper Technologies)."}, "RpfC^S18T liposome": {"target": "T3, RpfC^S18T liposome (Xanthomonas campestris pv. campestris, UniProt P0C0F7, S18T)", "T3 construct": "His6 (C); made in house; host or cells: E. coli BL21(DE3), pET30a", "experiment": "Autokinase assay, RpfC^S18T liposome", "type": "biochemical", "conditions": "0.75 μM DSF, 5 min; increase slightly lower than WT RpfC", "procedure": "(§4) in vitro phosphorylation assay was conducted as described in our previous study. For autophosphoylation, RpfC liposomes or IMV were incubated with 100 μM ATP containing 10 μCi [γ-^32P]ATP (PerkinElmer, USA) in autophosphorylation buffer (50 mM Tris-HCl, pH 7.8, 2 mM DTT, 25 mM NaCl, 25 mM KCl, 5 mM MgCl2) for indicated time (28°C). If necessary, DSF was added into the mixture 20 min before addition of ATP. The reaction was stopped with 6 × SDS-PAGE loading buffer. The phosphorylated proteins were separated by 12% SDS-PAGE. After SDS-PAGE electrophoresis, gels were separated from back glass plate and placed in a Ziploc bag and exposed to a phosphor screen for 1 hour. The screen was scanned with a PhosphorImage system (Amersham Biosciences, USA) at […]. If necessary, signal intensity was measured by Quantity One software (Bio-Rad)."}, "RpfC^E19A liposome": {"target": "T4, RpfC^E19A liposome (Xanthomonas campestris pv. campestris, UniProt P0C0F7, E19A)", "T4 construct": "His6 (C); made in house; host or cells: E. coli BL21(DE3), pET30a", "experiment": "MST binding, RpfC^E19A liposome", "procedure": "as §1, with “The label free MST assay was performed with 20% LED power and 40% MST power. KD Fit function of the Nano Temper Analysis Software Version 1.5.41 was used to fit curve and calculate the value of dissociation constant (Kd).” left out\nas §2"}, "RpfC^Δsensor liposome [4]": {"target": "T5, RpfC^Δsensor liposome (Xanthomonas campestris pv. campestris, UniProt P0C0F7)", "T5 construct": "His6 (C); made in house; host or cells: E. coli BL21(DE3), pET30a", "experiment": "Thermal shift assay, RpfC^Δsensor liposome", "type": "binding", "procedure": "as §3"}, "RpfC^S3A liposome": {"target": "T6, RpfC^S3A liposome (Xanthomonas campestris pv. campestris, UniProt P0C0F7, S3A)", "T6 construct": "His6 (C); made in house; host or cells: E. coli BL21(DE3), pET30a", "experiment": "Autokinase assay, RpfC^S3A liposome", "type": "biochemical", "conditions": "0.75 μM DSF, 5 min", "procedure": "as §4"}, "RpfS": {"target": "RpfS", "design": "method as in PMID 24617591, PMID 23815566", "conditions": "by ITC; read-out: binding affinity (Kd) DSF-RpfS; cited from earlier work"}, "RpfC^R15A liposome": {"target": "T7, RpfC^R15A liposome (Xanthomonas campestris pv. campestris, UniProt P0C0F7, R15A)", "T7 construct": "His6 (C); made in house; host or cells: E. coli BL21(DE3), pET30a", "experiment": "MST binding, RpfC^R15A liposome", "procedure": "as §1, with “The label free MST assay was performed with 20% LED power and 40% MST power. KD Fit function of the Nano Temper Analysis Software Version 1.5.41 was used to fit curve and calculate the value of dissociation constant (Kd).” left out\nas §2"}, "RpfC^Δsensor liposome [5]": {"target": "T5, RpfC^Δsensor liposome", "experiment": "MST binding, RpfC^Δsensor liposome", "procedure": "as §1"}, "RpfC^S18A liposome": {"target": "T8, RpfC^S18A liposome (Xanthomonas campestris pv. campestris, UniProt P0C0F7, S18A)", "T8 construct": "His6 (C); made in house; host or cells: E. coli BL21(DE3), pET30a", "experiment": "MST binding, RpfC^S18A liposome", "procedure": "as §1, with “The label free MST assay was performed with 20% LED power and 40% MST power. KD Fit function of the Nano Temper Analysis Software Version 1.5.41 was used to fit curve and calculate the value of dissociation constant (Kd).” left out\nas §2"}, "cell-cell communication": {"system": "cell-cell communication", "design": "method as in PMID 14731288", "conditions": "cited from earlier work"}},
  "data": [
    {"compound": "CC(C)CCCCCCC/C=C\\C(=O)O", "note": "[DSF, cis-11-methyl-dodecenoic acid]", "values": [
      {"measurement": "impact on secondary structure", "setting": "GST", "result": "did not have recognizable impact"},
      {"measurement": "DHp-CA fragment (30 kDa) after trypsin limited proteolysis", "setting": "RpfC^FL liposome [1]", "result": "large accumulation"},
      {"measurement": "Kd", "setting": "RpfC^FL liposome [2]", "result": "820 ± 120", "unit": "nM"},
      {"measurement": "binding between DSF and RpfC liposome", "setting": "RpfC^Q22A liposome", "result": "completely eliminated the binding"},
      {"measurement": "melting temperature (Tm)", "setting": "RpfC^FL liposome [3]; 5 μM DSF vs. 10 μM RpfC", "result": 64.27, "unit": "°C"},
      {"measurement": "melting temperature (Tm)", "setting": "RpfC^FL liposome [3]; 10 μM DSF vs. 10 μM RpfC", "result": 66.27, "unit": "°C"},
      {"measurement": "autophosphorylation level under DSF stimulation", "setting": "RpfC^S18T liposome", "result": "increased"},
      {"measurement": "binding between DSF and RpfC liposome", "setting": "RpfC^E19A liposome", "result": "completely eliminated the binding"},
      {"measurement": "thermal shift after DSF stimulation", "setting": "RpfC^Δsensor liposome [4]", "result": "no thermal shift was detected"},
      {"measurement": "RpfC-P level under DSF stimulation", "setting": "RpfC^S3A liposome", "result": "remarkably increased"},
      {"measurement": "Kd", "setting": "RpfS", "result": 1400, "unit": "nM"},
      {"measurement": "binding between DSF and RpfC liposome", "setting": "RpfC^R15A liposome", "result": "completely eliminated the binding"},
      {"measurement": "binding to DSF", "setting": "RpfC^Δsensor liposome [5]", "result": "didn’t bind"},
      {"measurement": "binding between DSF and RpfC liposome", "setting": "RpfC^S18A liposome", "result": "completely eliminated the binding"},
      {"measurement": "minimal bioactive concentration of DSF required for eliciting cell-cell communication", "setting": "cell-cell communication", "result": "approximately 0.5 μM"}
    ]}
  ]
}
